SMILES | melting point
CSCCCn1c(C)c(C(=O)c2cccc(Cl)c2Cl)c2cccc(Cl)c21 | 87 °C
Nc1nc(-c2cccc3ccc(Br)cc23)co1 | 189 to 190 °C
CC(C)(C)OC(=O)N(C1CCNCC1)C1CCOCC1 | 104 °C
CCOC(=O)COc1cc2c(cc1Cl)C(=O)CC1(CCCCC1)O2 | 116 to 117 °C
CC(C)CCCC(C)C1CCC2C3CC(Br)=C4CC(O)CCC4(C)C3CCC12C (stereo not drawn) | 155 °C
CNC(=C[N+](=O)[O-])NCc1ccc(Cl)nc1 | 181 to 183 °C
N#Cc1cc(NC(=O)c2cccn2-c2ccc(F)cc2)ccc1N1CCN(CCO)CC1 | 170 to 171 °C
CCCc1c(OCC2COc3cc(CC(=O)O)ccc3O2)ccc(C(C)=O)c1O (stereo not drawn) | 143 to 146 °C
O=C(Nc1cccc(F)n1)c1cc(-c2ccc(O)cc2)nc2ccccc12 | 210 to 212 °C
COc1ccc(C(=O)c2cn3c4c(cccc24)OCC3CN2CCOCC2)cc1 (stereo not drawn) | 209 to 214 °C
O=S(=O)(c1ccc(I)cc1)N1CCC(Br)(Br)C(c2ccc(Cl)c(C(F)(F)F)c2)=N1 | 148 to 150 °C
CCCc1c(OCCOc2cccc3c2CCCC3)ccc2c1OC(CCC(=O)O)(CCC(=O)O)CC2=O | 160 to 162 °C
O=c1[nH]c2c(Cl)ccc(Cl)c2c(=O)n1CCCN1CC=C(c2ccc(Cl)cc2)CC1 | 207 to 209 °C
CC(C)(C)c1cc(-c2cc(C(C)(C)C)cc(C(C)(C)C)c2O)c(O)c(C(C)(C)C)c1 | 190 to 195 °C
Nc1ccccc1C(=O)COC(=O)c1ccccc1 | 125 °C
CS(=O)(=O)c1ccc(C[C@@H](NC(=O)OCc2ccccc2)[C@H](O)C(N)=O)cc1 | 186 to 191 °C
CC(Oc1ccc(COc2ccc(Cl)cc2)cc1)C(=O)OCCOc1cc(Cl)c(Cl)cc1Cl (stereo not drawn) | 83 °C
CCN(CC)CCNC(=O)c1nc(Cl)c(OC)nc1OC | 88 °C
c1ccc(COc2cc(-c3ccccn3)nc(-c3cccc(-c4ccccc4)n3)c2)cc1 | 182 °C

SMILES | melting point
O=C1N(CC2CCCO2)c2cc(F)ccc2C12COc1cc3c(cc12)CCO3 (stereo not drawn) | 137 to 139 °C
CCCCCCCCCCCCCCCc1ccc(C(=O)c2ccccc2)c(O)c1 | 46 to 47 °C
O=C(NN=Cc1ccncc1)OCc1ccccc1 | 134 °C
Oc1cc(Cl)cc(Br)c1 | 66 to 68 °C
C=CCN(c1ccccc1)c1cc2c(cc1N(CC=C)c1ccccc1)C(=O)NC2=O | 122 to 127 °C
COC(=O)c1cc(OC)c([N+](=O)[O-])cc1NC(C)=O | 141 to 143 °C
COc1ccc(-c2nc(CCC(=O)O)oc2-c2ccccc2)cc1 | 118 to 120 °C
Nc1ccc(CN2C(=O)C3(COc4cc5c(cc43)OCCO5)c3ccccc32)cn1 (stereo not drawn) | 117 to 119 °C
COC(=O)c1c2n(c3ccccc13)Cc1ccccc1N1CCN(C)CC21 (stereo not drawn) | 157 to 159 °C
N#Cc1cc(F)c(-n2ncc(Cl)c(Cl)c2=O)cc1F | 206 °C
CCOP(=O)(OCC)Oc1c(C2CCN(CCCCNC(=O)c3ccc(-c4ccc(C#N)cc4)cc3)CC2)ccc2c1CCCC2 | 90 °C
NC(=Nc1ccc2[nH]c3ccccc3c2c1)c1cccs1 | 243 to 244 °C
O=C(O)CCc1[nH]nc2c1CCCC2 | 135 to 136 °C
Nc1nc(Cl)cc(Oc2ccc3c(c2)CCCCN3C(=O)Nc2cccc(C(F)(F)F)c2)n1 | 175 °C
O=C(Nc1cc(-c2ccc(-c3ccccc3)cc2)on1)c1c(Cl)cccc1Cl | 256 to 259 °C
CNS(=O)(=O)c1ccc(CCN2CC=C(c3c[nH]c(-c4ccc(F)cc4)c3-c3ccncc3)CC2)cc1OC | 245 to 247 °C
CC(Cc1ccc(Oc2cc(N3CCN(Cc4ccccc4)CC3)ncn2)cc1)(Oc1ccccc1)C(=O)O (stereo not drawn) | 107 to 109 °C
CC1(C)N(CC(N)=O)C(=O)CN1C(=O)CCl | 214 to 216 °C
CCCCNC(=O)CNC(=O)CN1CCCC1=O | 105 to 106 °C

Now from value to compound:

melting point | SMILES
115 to 116 °C | CC(C)S(=O)(=O)Nc1cc(C(=O)c2ccccc2)ccc1[N+](=O)[O-]
116 to 117 °C | CC(C)(NC=O)c1ccc(C(F)(F)C(F)(F)c2ccccc2)cc1
127 to 128 °C | CC(=O)Oc1cccc(C(=O)N[C@H]2COC(C)(C)OC[C@@H]2OS(C)(=O)=O)c1C
131 to 132 °C | CC(=O)c1ccc(Oc2ccc(S(C)(=O)=O)cc2)cc1
259 to 261 °C | N#Cc1c(-c2ccc(Cl)cc2)[nH]c(Cl)c1Cl
151 °C | CCOC(=O)c1nc2n(c(=O)c1O)CCC=C2c1ccccc1
157 to 159 °C | Cc1nnc2ccc(-c3cccc(NC(C)C)c3)nn12
130 to 132 °C | CCn1cc(C(=O)OCC(=O)OCC2CCCCC2)c(=O)c2ccc(C)nc21
150 to 153 °C | CCC1CCCCN1C(=O)C=Cc1c(-c2ccncc2)nn2ccccc12 (stereo not drawn)
103 to 104 °C | C#Cc1ccc(=O)n(C(C)C)n1
247 to 248 °C | C[Si](C)(C)c1ccc(C(=O)Nc2nnn[nH]2)o1
47 to 49 °C | COc1cc(OC)nc(OC)c1
145 to 149 °C | CCOC(=O)c1ncn2c1C(C)(C)Nc1ccccc1-2
113 to 115 °C | O=S(=O)(CCO)C(F)(F)C(O)(Cn1cncn1)c1ccc(F)cc1F (stereo not drawn)
201 to 202 °C | COc1cc(-n2cc[nH]c2=O)c(Cl)cc1Cn1nc(-c2ccc(C(F)(F)F)cc2)oc1=O
157 to 159 °C | Cc1ccc2c(c1)CC(=O)c1cc(C(C)C(=O)O)ccc1S2 (stereo not drawn)
180 to 185 °C | O=C1Nc2ccc(Br)cc2C2(CCCC2)O1
148 to 149 °C | O=C(O)c1cn(Cc2cccc(Oc3ccccc3)c2)nc1-c1ccccc1

melting point | SMILES
183 to 185 °C | Cc1cccc(-c2ncc(NC(=O)OCc3ccccc3)c(=O)n2CC(=O)O)c1
162 to 163 °C | N#Cc1ccc(C=NO)c([N+](=O)[O-])c1
150 °C | CCOC(=O)c1cncc(O)c1
204 to 206 °C | Cn1c2ccccc2c2nc3cccc(CCl)c3nc21
213 to 215 °C | O=C1CCC(N2Cc3c(OCc4cccc(CN5CCn6nc(C(F)(F)F)nc6C5)c4)cccc3C2=O)C(=O)N1 (stereo not drawn)
120 °C | CCC(C)OC(=O)CCC(S)(C#N)C1=NCCc2cc(OC)c(OC)cc21 (stereo not drawn)
113 to 116 °C | CC1Cc2ccc(Br)cc2C(c2ccc(N)cc2)=NN1C1CC1 (stereo not drawn)
57 °C | Cc1cc(C#N)nc(Cl)n1
56 to 57 °C | COc1c(OC2CCC(=O)CC2)ccnc1C
215 to 222 °C | COc1cc2c(cc1OC)S(=O)(=O)N(C)C(C(N)=O)C2 (stereo not drawn)
293 to 295 °C | CCCN1NCc2c(C3C(=O)Nc4ccc(C(F)(F)F)cc43)ncnc21 (stereo not drawn)
88 to 89 °C | Cc1ccccc1Cc1cccnn1
154 to 155 °C | CC(C)(CNc1ccnc2cc(Cl)ccc12)NCc1c(Cl)cccc1Cl
119 to 124 °C | Cc1cccc(-c2[nH]c(C(C)C)nc2-c2cccc(-c3ccc(N)cn3)c2)n1
65 to 66 °C | Cc1ccc2c(c1)C(c1ccc(C(C)C)cc1)C(C)(C)O2 (stereo not drawn)
187 to 188 °C | Cc1ccccc1-n1ccc2c(NCCO)nc3c(C)cccc3c21
276 to 278 °C | O=[N+]([O-])c1ccc2c(c1)S(=O)(=O)N=C(NCC1CC1)N2
